In patent US20110045998A1, “CANDIDATE GENES AND BLOOD BIOMARKERS FOR BIPOLAR MOOD DISORDER, ALCOHOLISM AND STRESS DISORDER” (priority 2007, published 2011):
“Also recorded” adds a separate entry of the source. Like-named read-outs stand apart in the source and are kept apart here.

Experiments:
DBP KO NST mice = test: Locomotor pattern testing (open field video tracking) after acute methamphetamine, non-stressed mice; type: in vivo; conditions: methamphetamine 10 mg/kg intra-peritoneal
Protocol: Drugs: Mice were administered saline, valproate (200 mg/kg), or methamphetamine (10 mg/kg) acutely by intra-peritoneal injection.
Locomotor Pattern Testing: A SMART II Video Tracker (VT) system (San Diego Instruments, San Diego, Calif.) was used to track movement of mice immediately after drug administration and again 24 hours later. After injection, mice were placed in the lower-right-hand corner of one of four adjacent, 41×41×34-cm^3 enclosures. Mice had no physical contact with other mice during testing. Each enclosure has nine pre-defined areas, i.e. center area, corner area, and wall area. The movements of the mice were recorded for 30 minutes.
Measures of overall locomotor activity were obtained and represented by the total distance traveled within and between each of the nine regions of the enclosure. Two categories of behavior were obtained. First, the amount of locomotor activity was assessed by using the total distance traveled in the open field in a 30-minute interval. Second, the spatial scaling exponent, d, or spatial D, was obtained. Spatial D is a quantified measure of the geometric patterns of locomotor activity. Briefly, spatial d is a measure of the non-linear nature of an animal's locomotor movement and is quantified on a scale from 1 to 2; with d=1 indicating extremely linear movement and d=2 representing highly non-linear locomotor movement.
Data and Statistical Analysis: Two-way analyses of variance (ANOVAs) were used to compare total distance traveled and spatial d. Genotype and/or drug treatment were between-subjects variables, and time was a within-subjects variable. All computations were conducted with SPSS statistical software (SPSS Inc., Chicago, Ill.).
Non-Stress (NST) vs. Stress (ST) Experiments: For the Non-Stress (NST) experiments, mice were group housed. For the Stress (ST) experiments, mice were subjected to a chronic stress paradigm consisting of isolation (single housing) for one month, with an acute stressor (behavioral challenge tests) in Week 3. […] At four weeks, mice were injected with either saline or methamphetamine.

[1] = tested on: brain gene expression (PFC, AMY, CP, VT); parameters: key: I—Increased in expression; D—decreased in expression; conditions: cited from earlier work
DBP KO mice = test: Sleep deprivation experiments with valproate pre-treatment, locomotor activity by video tracking; type: in vivo
Protocol: To further characterize the behavioral phenotype of the DBP KO mice, group-housed (NST) male DBP KO mice were subjected to sleep deprivation for a 24 hour period. Following sleep deprivation, sleep-deprived (SD) mice and control non sleep-deprived (NSD) mice were monitored with video-tracking software. […] In a second sleep deprivation experiment, mice were pre-treated with an IP valproate injection (200 mg/kg) immediately prior to the sleep deprivation experiment. If the change in locomotor behavior that accompanies sleep-deprivation in the SD animals is representative of an endophenotype that is associated with bipolar disorder, then administration of the mood stabilizing agent valproate should counteract the behavioral response of DBP KO mice to sleep deprivation. […] Sleep Deprivation Experiments: Sleep deprivation studies consisted of light cycle changes, with no handling of animals involved, to avoid inducing non-sleep related handling stress confounds. Male DBP KO mice were used in the sleep deprivation experiments as follows: sleep deprived (SD) animals were removed from the standard housing room with a 12 hour off/12 hour on (reverse) light cycle and kept in a dark room overnight the night before the experiment. Non-sleep deprived (NSD) animals were kept in the housing room with the standard light cycle the night before the experiment to allow for a normal night's sleep. […]

SMILES: CN[C@@H](C)Cc1ccccc1 [methamphetamine]
- stereotypy, as measured by Spatial Deviance (DBP KO NST mice; DBP KO NST mice): reduction in stereotypy
- Total Distance Traveled (DBP KO NST mice; DBP KO NST mice, 30 minutes open field): reversed this decrease
- stereotypy, as measured by Spatial Deviance (DBP KO NST mice; WT mice): trend towards an increase in stereotypy
- Cdk5r1 expression, Bipolar CFG (Ogden et al. 2004) ([1]; AMY, Cat II): AMY Cat II-Meth(D) VPA(D)
- Ckmt1 expression, Bipolar CFG (Ogden et al. 2004) ([1]; AMY, Cat III): AMY Cat III-Meth(I) VPA(I)
- Sec24d expression, Bipolar CFG (Ogden et al. 2004) ([1]; AMY, Cat III): AMY Cat III-Meth(I)
- Gas5 expression, Bipolar CFG (Ogden et al. 2004) ([1]; AMY, Cat IV): AMY Cat IV-Meth(I)
- Gnb1 expression, Bipolar CFG (Ogden et al. 2004) ([1]; AMY, Cat IV): AMY Cat IV-Meth (I)
- Mef2a expression, Bipolar CFG (Ogden et al. 2004) ([1]; AMY, Cat IV): AMY Cat IV-Meth (D)
- Ttr expression, Bipolar CFG (Ogden et al. 2004) ([1]; CP, Cat IV): CP Cat IV-Meth(I)
- Gpr88 expression, Bipolar CFG (Ogden et al. 2004) ([1]; PFC, Cat I): PFC Cat I-Meth(I) VPA (I)
- Mef2c expression, Bipolar CFG (Ogden et al. 2004) ([1]; PFC, Cat I): D
- Penk1 expression, Bipolar CFG (Ogden et al. 2004) ([1]; PFC, Cat I): PFC Cat I-Meth(I) VPA(I)
- Ppp1r1b/Darp32 expression, Bipolar CFG (Ogden et al. 2004) ([1]; PFC, Cat I): PFC Cat I-Meth(I) VPA(I)
- Tac1 expression, Bipolar CFG (Ogden et al. 2004) ([1]; PFC, Cat I): PFC Cat I-Meth(I) VPA(I)
- Alcam expression, Bipolar CFG (Ogden et al. 2004) ([1]; PFC, Cat III): PFC Cat III-Meth(D)
- Ddx6 expression, Bipolar CFG (Ogden et al. 2004) ([1]; PFC, Cat III): PFC Cat III-Meth (D)
- Gng7 expression, Bipolar CFG (Ogden et al. 2004) ([1]; PFC, Cat III): PFC Cat III-Meth(I) VPA(I)
- Scn4b expression, Bipolar CFG (Ogden et al. 2004) ([1]; PFC, Cat III): PFC Cat III-Meth(I) VPA(I)
- Actb expression, Bipolar CFG (Ogden et al. 2004) ([1]; PFC, Cat IV): PFC Cat IV-Meth (D)
- Arhgap5 expression, Bipolar CFG (Ogden et al. 2004) ([1]; PFC, Cat IV): PFC Cat IV-Meth (I)
- Gabra4 expression, Bipolar CFG (Ogden et al. 2004) ([1]; PFC, Cat IV): PFC Cat IV-METH (I)
- Gsk3b expression, Bipolar CFG (Ogden et al. 2004) ([1]; PFC, Cat IV): PFC Cat IV-METH (D)
- Hectd1 expression, Bipolar CFG (Ogden et al. 2004) ([1]; PFC, Cat IV): PFC Cat IV-Meth(D)
- Peg3 expression, Bipolar CFG (Ogden et al. 2004) ([1]; PFC, Cat IV): PFC Cat IV-Meth(D)
- Pten expression, Bipolar CFG (Ogden et al. 2004) ([1]; PFC, Cat IV): PFC Cat IV-Meth(D)
- Tmod2 expression, Bipolar CFG (Ogden et al. 2004) ([1]; PFC, Cat IV): PFC Cat IV-METH (D)
- Alcam expression, Bipolar CFG (Ogden et al. 2004) ([1]; VT, Cat IV): VT Cat IV-Meth(D)
- Ddx6 expression, Bipolar CFG (Ogden et al. 2004) ([1]; VT, Cat IV): VT Cat IV-Meth (D)

SMILES: CCCC(CCC)C(=O)O [valproate, valproic acid]
- locomotion in NSD animals (DBP KO mice; NSD DBP KO mice, valproate 200 mg/kg vs non-valproate treated): did not have any significant effect on locomotion
- total distance traveled, sleep-deprived (SD) vs non sleep-deprived (NSD) (DBP KO mice; male DBP KO mice, IP valproate 200 mg/kg prior to 24 hour sleep deprivation): increase in locomotion is prevented; also recorded: no significant difference in the locomotor behavior of SD and NSD animals
- Cdk5r1 expression, Bipolar CFG (Ogden et al. 2004) ([1]; AMY, Cat II): AMY Cat II-Meth(D) VPA(D)
- Cacnb2 expression, Bipolar CFG (Ogden et al. 2004) ([1]; AMY, Cat III): AMY Cat III-VPA(D)
- Ckmt1 expression, Bipolar CFG (Ogden et al. 2004) ([1]; AMY, Cat III): AMY Cat III-Meth(I) VPA(I)
- Ids expression, Bipolar CFG (Ogden et al. 2004) ([1]; AMY, Cat III): AMY Cat III-VPA(D)
- Mef2c expression, Bipolar CFG (Ogden et al. 2004) ([1]; AMY, Cat III): AMY Cat III-VPA(D)
- Ptov1 expression, Bipolar CFG (Ogden et al. 2004) ([1]; AMY, Cat III): AMY Cat III-VPA(I)
- Actb expression, Bipolar CFG (Ogden et al. 2004) ([1]; AMY, Cat IV): AMY Cat IV-VPA (I)
- Alcam expression, Bipolar CFG (Ogden et al. 2004) ([1]; AMY, Cat IV): AMY Cat IV-VPA(D)
- Atp8a1 expression, Bipolar CFG (Ogden et al. 2004) ([1]; AMY, Cat IV): AMY Cat IV-VPA(D)
- Clasp2 expression, Bipolar CFG (Ogden et al. 2004) ([1]; AMY, Cat IV): AMY Cat IV-VPA(D)
- Peg3 expression, Bipolar CFG (Ogden et al. 2004) ([1]; AMY, Cat IV): AMY Cat IV-VPA(D)
- Ptpn5/Step expression, Bipolar CFG (Ogden et al. 2004) ([1]; AMY, Cat IV): AMY Cat IV-VPA (I)
- Sez6 expression, Bipolar CFG (Ogden et al. 2004) ([1]; AMY, Cat IV): AMY Cat IV-VPA(I)
- Timp2 expression, Bipolar CFG (Ogden et al. 2004) ([1]; AMY, Cat IV): AMY Cat IV-VPA (D)
- Cdk5r1 expression, Bipolar CFG (Ogden et al. 2004) ([1]; CP, Cat III): CP Cat III-VPA(I)
- Alcam expression, Bipolar CFG (Ogden et al. 2004) ([1]; CP, Cat IV): CP Cat IV-VPA(D)
- Cacnb2 expression, Bipolar CFG (Ogden et al. 2004) ([1]; CP, Cat IV): CP Cat IV-VPA(I)
- Gnb1 expression, Bipolar CFG (Ogden et al. 2004) ([1]; CP, Cat IV): CP Cat IV-VPA (D)
- Ids expression, Bipolar CFG (Ogden et al. 2004) ([1]; CP, Cat IV): CP Cat IV-VPA(I)
- Mef2a expression, Bipolar CFG (Ogden et al. 2004) ([1]; CP, Cat IV): CP Cat IV-VPA (I)
- Gsk3b expression, Bipolar CFG (Ogden et al. 2004) ([1]; CP, IV): CP IV-VPA (D)
- Gpr88 expression, Bipolar CFG (Ogden et al. 2004) ([1]; PFC, Cat I): PFC Cat I-Meth(I) VPA (I)
- Mef2c expression, Bipolar CFG (Ogden et al. 2004) ([1]; PFC, Cat I): I
- Penk1 expression, Bipolar CFG (Ogden et al. 2004) ([1]; PFC, Cat I): PFC Cat I-Meth(I) VPA(I)
- Ppp1r1b/Darp32 expression, Bipolar CFG (Ogden et al. 2004) ([1]; PFC, Cat I): PFC Cat I-Meth(I) VPA(I)
- Tac1 expression, Bipolar CFG (Ogden et al. 2004) ([1]; PFC, Cat I): PFC Cat I-Meth(I) VPA(I)
- Gng7 expression, Bipolar CFG (Ogden et al. 2004) ([1]; PFC, Cat III): PFC Cat III-Meth(I) VPA(I)
- Scn4b expression, Bipolar CFG (Ogden et al. 2004) ([1]; PFC, Cat III): PFC Cat III-Meth(I) VPA(I)
